In the NIST ThermoML archive (doi:10.1016/j.jct.2019.02.028):
± gives the expanded uncertainty stated by the source.

Experiment: xn = mol fraction of the nth substance listed
Conditions: Gas, Burnett expansion method

C=C(F)C(F)(F)F [2,3,3,3-tetrafluoro-1-propene] + FCF
Conditions | mass density [kg/m3]
298.75 K, 572.1 kPa, x2 = 0.119 | 28.04 ± 0.54
298.79 K, 1055.5 kPa, x2 = 0.698 | 36.11 ± 0.34
298.8 K, 475.09 kPa, x2 = 0.449 | 18 ± 0.17
298.8 K, 476.95 kPa, x2 = 0.259 | 20.72 ± 0.18
298.8 K, 518.4 kPa, x2 = 0.698 | 16.01 ± 0.15
298.8 K, 684.19 kPa, x2 = 0.449 | 27.04 ± 0.21
298.82 K, 748.46 kPa, x2 = 0.698 | 24.04 ± 0.22
298.86 K, 487.12 kPa, x2 = 0.874 | 12.55 ± 0.15
298.86 K, 1393.8 kPa, x2 = 0.874 | 42.51 ± 0.35
298.87 K, 1004.6 kPa, x2 = 0.874 | 28.3 ± 0.32
298.93 K, 704.35 kPa, x2 = 0.874 | 18.84 ± 0.22
308.66 K, 1524.8 kPa, x2 = 0.698 | 54.21 ± 0.54
308.68 K, 1108.2 kPa, x2 = 0.698 | 36.09 ± 0.34
308.69 K, 597.54 kPa, x2 = 0.119 | 28.02 ± 0.15
308.7 K, 493.92 kPa, x2 = 0.449 | 17.99 ± 0.17
308.7 K, 496.45 kPa, x2 = 0.259 | 20.72 ± 0.17
308.71 K, 538.99 kPa, x2 = 0.698 | 16 ± 0.15
308.71 K, 714.14 kPa, x2 = 0.449 | 27.02 ± 0.25
308.71 K, 842.28 kPa, x2 = 0.119 | 42.09 ± 0.28
308.72 K, 712.34 kPa, x2 = 0.259 | 31.11 ± 0.24
308.72 K, 997.47 kPa, x2 = 0.259 | 46.73 ± 0.35
308.73 K, 780.62 kPa, x2 = 0.698 | 24.03 ± 0.22
308.74 K, 1976.1 kPa, x2 = 0.874 | 63.81 ± 0.55
308.76 K, 1011.1 kPa, x2 = 0.449 | 40.58 ± 0.37
308.77 K, 1470.2 kPa, x2 = 0.874 | 42.48 ± 0.51
308.78 K, 1051.3 kPa, x2 = 0.874 | 28.28 ± 0.33
308.79 K, 506.01 kPa, x2 = 0.874 | 12.54 ± 0.15
308.82 K, 733.43 kPa, x2 = 0.874 | 18.83 ± 0.22
313.6 K, 1566.5 kPa, x2 = 0.698 | 54.19 ± 0.54
313.64 K, 503.35 kPa, x2 = 0.449 | 17.98 ± 0.17
313.64 K, 1134 kPa, x2 = 0.698 | 36.08 ± 0.34
313.65 K, 610.01 kPa, x2 = 0.119 | 28.01 ± 0.15
313.66 K, 506.36 kPa, x2 = 0.259 | 20.71 ± 0.17
313.66 K, 728.88 kPa, x2 = 0.449 | 27.01 ± 0.25
313.67 K, 796.71 kPa, x2 = 0.698 | 24.02 ± 0.22
313.68 K, 549.32 kPa, x2 = 0.698 | 15.99 ± 0.15
313.68 K, 727.83 kPa, x2 = 0.259 | 31.11 ± 0.24
313.68 K, 862.42 kPa, x2 = 0.119 | 42.07 ± 0.28
313.68 K, 1021.8 kPa, x2 = 0.259 | 46.73 ± 0.35
313.7 K, 1507.4 kPa, x2 = 0.874 | 42.47 ± 0.51
313.7 K, 2038.5 kPa, x2 = 0.874 | 63.79 ± 0.55
313.72 K, 1034.8 kPa, x2 = 0.449 | 40.57 ± 0.37
313.72 K, 1074 kPa, x2 = 0.874 | 28.28 ± 0.33
313.74 K, 515.35 kPa, x2 = 0.874 | 12.53 ± 0.15
313.79 K, 747.77 kPa, x2 = 0.874 | 18.83 ± 0.22
318.62 K, 1609.8 kPa, x2 = 0.698 | 54.18 ± 0.53
318.68 K, 1159.3 kPa, x2 = 0.698 | 36.07 ± 0.34
318.7 K, 2100 kPa, x2 = 0.874 | 63.77 ± 0.91
318.72 K, 512.99 kPa, x2 = 0.449 | 17.98 ± 0.16
318.72 K, 882.63 kPa, x2 = 0.119 | 42.06 ± 0.26
318.72 K, 1210.1 kPa, x2 = 0.119 | 63.25 ± 0.45
318.73 K, 516.26 kPa, x2 = 0.259 | 20.71 ± 0.17
318.73 K, 743.73 kPa, x2 = 0.449 | 27 ± 0.24
318.73 K, 813.03 kPa, x2 = 0.698 | 24.02 ± 0.22
318.73 K, 1463.2 kPa, x2 = 0.449 | 61.04 ± 0.6
318.74 K, 559.65 kPa, x2 = 0.698 | 15.99 ± 0.15
318.74 K, 743.48 kPa, x2 = 0.259 | 31.1 ± 0.24
318.74 K, 1046.5 kPa, x2 = 0.259 | 46.72 ± 0.45
318.74 K, 1058.5 kPa, x2 = 0.449 | 40.56 ± 0.38
318.74 K, 1097.2 kPa, x2 = 0.874 | 28.27 ± 0.33
318.74 K, 1544.9 kPa, x2 = 0.874 | 42.46 ± 0.51
318.75 K, 622.85 kPa, x2 = 0.119 | 28 ± 0.15
318.77 K, 762.25 kPa, x2 = 0.874 | 18.82 ± 0.22
318.78 K, 525.03 kPa, x2 = 0.874 | 12.53 ± 0.15
323.56 K, 1650.9 kPa, x2 = 0.698 | 54.16 ± 0.53
323.62 K, 1184.6 kPa, x2 = 0.698 | 36.06 ± 0.34
323.62 K, 2161.1 kPa, x2 = 0.874 | 63.75 ± 0.74
323.67 K, 522.17 kPa, x2 = 0.449 | 17.97 ± 0.16
323.67 K, 902.39 kPa, x2 = 0.119 | 42.05 ± 0.26
323.67 K, 2803.5 kPa, x2 = 0.874 | 96.27 ± 0.9
323.68 K, 525.72 kPa, x2 = 0.259 | 20.71 ± 0.17
323.68 K, 569.78 kPa, x2 = 0.698 | 15.98 ± 0.15
323.68 K, 758.4 kPa, x2 = 0.449 | 27 ± 0.24
323.68 K, 828.96 kPa, x2 = 0.698 | 24.01 ± 0.22
323.68 K, 1081.3 kPa, x2 = 0.449 | 40.55 ± 0.38
323.69 K, 533.88 kPa, x2 = 0.874 | 12.53 ± 0.15
323.69 K, 758.79 kPa, x2 = 0.259 | 31.1 ± 0.23
323.69 K, 1070.4 kPa, x2 = 0.259 | 46.71 ± 0.38
323.69 K, 1460 kPa, x2 = 0.259 | 70.1 ± 0.56
323.69 K, 1502 kPa, x2 = 0.449 | 61.01 ± 0.59
323.69 K, 2207.6 kPa, x2 = 0.698 | 81.35 ± 0.89
323.7 K, 635.26 kPa, x2 = 0.119 | 27.99 ± 0.15
323.7 K, 1243.5 kPa, x2 = 0.119 | 63.23 ± 0.44
323.7 K, 1581.8 kPa, x2 = 0.874 | 42.45 ± 0.5
323.71 K, 776.56 kPa, x2 = 0.874 | 18.81 ± 0.22
323.73 K, 1120.2 kPa, x2 = 0.874 | 28.26 ± 0.33
328.55 K, 1691.6 kPa, x2 = 0.698 | 54.15 ± 0.53
328.58 K, 1209.7 kPa, x2 = 0.698 | 36.05 ± 0.33
328.6 K, 543.23 kPa, x2 = 0.874 | 12.52 ± 0.15
328.61 K, 531.32 kPa, x2 = 0.449 | 17.97 ± 0.16
328.61 K, 772.98 kPa, x2 = 0.449 | 26.99 ± 0.24
328.61 K, 1275.3 kPa, x2 = 0.119 | 63.21 ± 0.43
328.62 K, 579.61 kPa, x2 = 0.698 | 15.98 ± 0.15
328.62 K, 2220.5 kPa, x2 = 0.874 | 63.73 ± 0.74
328.62 K, 2904.2 kPa, x2 = 0.874 | 96.19 ± 0.88
328.63 K, 535.28 kPa, x2 = 0.259 | 20.7 ± 0.17
328.63 K, 844.62 kPa, x2 = 0.698 | 24 ± 0.22
328.63 K, 922.19 kPa, x2 = 0.119 | 42.04 ± 0.25
328.63 K, 1094.6 kPa, x2 = 0.259 | 46.71 ± 0.38
328.63 K, 1105.1 kPa, x2 = 0.449 | 40.54 ± 0.38
328.63 K, 1499.1 kPa, x2 = 0.259 | 70.09 ± 0.57
328.64 K, 647.48 kPa, x2 = 0.119 | 27.99 ± 0.15
328.64 K, 773.73 kPa, x2 = 0.259 | 31.1 ± 0.23
328.64 K, 1540.2 kPa, x2 = 0.449 | 60.98 ± 0.59
328.64 K, 2275.8 kPa, x2 = 0.698 | 81.33 ± 0.87
328.65 K, 1617.6 kPa, x2 = 0.874 | 42.43 ± 0.5
328.66 K, 790.86 kPa, x2 = 0.874 | 18.81 ± 0.22
328.67 K, 1142.6 kPa, x2 = 0.874 | 28.25 ± 0.33
333.46 K, 1731.9 kPa, x2 = 0.698 | 54.13 ± 0.52
333.56 K, 540.51 kPa, x2 = 0.449 | 17.96 ± 0.16
333.57 K, 941.58 kPa, x2 = 0.119 | 42.02 ± 0.25
333.57 K, 1235.3 kPa, x2 = 0.698 | 36.04 ± 0.33
333.57 K, 2278.9 kPa, x2 = 0.874 | 63.71 ± 0.73
333.57 K, 2342.7 kPa, x2 = 0.698 | 81.3 ± 0.85
333.58 K, 544.62 kPa, x2 = 0.259 | 20.7 ± 0.17
333.58 K, 1578 kPa, x2 = 0.449 | 60.96 ± 0.62
333.58 K, 1734.6 kPa, x2 = 0.119 | 94.99 ± 0.76
333.58 K, 2115 kPa, x2 = 0.449 | 91.6 ± 0.99
333.58 K, 3002.9 kPa, x2 = 0.874 | 96.12 ± 1.5
333.59 K, 659.59 kPa, x2 = 0.119 | 27.98 ± 0.15
333.59 K, 787.46 kPa, x2 = 0.449 | 26.98 ± 0.24
333.59 K, 788.83 kPa, x2 = 0.259 | 31.09 ± 0.23
